Test results published in ChEMBL document CHEMBL5042500 (J Med Chem, 2022).
In brackets after ≈: the same amount, converted by molar mass. Activity calls are given as the source filed them. No cut-off for these calls is given here.

Legend:
[1] = Metabolic stability in CD1 mouse liver microsomes assessed as compound degradation in presence of NADPH measured after 20 mins; assay type: ADME, Microsome; conditions: read-out: Drug degradation
[2] = target: CYP3A4 (Homo sapiens, UniProt P08684); test: Inhibition of CYP3A4 in human liver microsomes by measuring maximum efficacy; assay type: ADME
[3] = Aqueous solubility of the compound at pH 7.4; assay type: physicochemical
[4] = Metabolic stability in human liver microsomes assessed as compound degradation in presence of NADPH measured after 20 mins; assay type: ADME, Microsome; conditions: read-out: Drug degradation
[5] = target: T1, hERG (KCNH2) (Homo sapiens, UniProt Q12809); test: Inhibition of human ERG at 1 uM relative to control; assay type: toxicity
[6] = target: T1, hERG (KCNH2); test: Inhibition of human ERG at 10 uM; assay type: toxicity
[7] = tested on: Salmonella typhimurium; test: Mutagenicity in Salmonella typhimurium […] in presence of S9 fraction by ames test; assay type: toxicity, organism-based; conditions: salmonella enterica subsp. enterica serovar typhimurium
[8] = Intrinsic clearance in human hepatocytes assessed per 10^-6 cells; assay type: ADME, cell-based, Hepatocyte
[9] = Distribution coefficient, logD of compound at pH 7.4 by chromatographic analysis; assay type: physicochemical; conditions: octanol/water
[10] = Permeability in human Caco2 cells at 20 uM incubated for 120 mins by ESI-MS/MS analysis; assay type: ADME, cell-based; conditions: Caco-2, read-out: permeability
[11] = target: T2, Cytochrome P450 3A4 (Homo sapiens, UniProt P08684); test: Inhibition of CYP3A4 in human liver microsomes using testosterone as substrate incubated for 30 mins by LC-MS/MS analysis; assay type: ADME
[12] = tested on: Salmonella typhimurium; test: Mutagenicity in Salmonella typhimurium […] by ames test; assay type: toxicity, organism-based; conditions: salmonella enterica subsp. enterica serovar typhimurium
[13] = Effect on chondrocyte hypertrophic differentiation mouse ATDC-5 cells assessed as inhibition of […] gene expression incubated for 2 weeks followed by compound added and every 3 days medium is changed measured after 2 weeks by RT-qPCR analysis; assay type: functional, cell-based
[14] = Solubility of the compound in FeSSIF at pH 5.0; assay type: physicochemical
[15] = Metabolic stability in Sprague-Dawley rat liver microsomes assessed as compound degradation in presence of NADPH measured after 20 mins; assay type: ADME, Microsome; conditions: read-out: Drug degradation
[16] = target: T3, Serine/threonine-protein kinase Sgk1 (Homo sapiens, UniProt O00141); test: Inhibition of recombinant human SGK1 expressed in baculovirus expression system using 5-carboxyfluorescein -RPRAATF-NH2 as substrate preincubated for 30 mins followed by substrate addition in presence of 10 uM ATP and measured after 60 mins by microfluidics assay
T3 sequence (O00141 whole entry): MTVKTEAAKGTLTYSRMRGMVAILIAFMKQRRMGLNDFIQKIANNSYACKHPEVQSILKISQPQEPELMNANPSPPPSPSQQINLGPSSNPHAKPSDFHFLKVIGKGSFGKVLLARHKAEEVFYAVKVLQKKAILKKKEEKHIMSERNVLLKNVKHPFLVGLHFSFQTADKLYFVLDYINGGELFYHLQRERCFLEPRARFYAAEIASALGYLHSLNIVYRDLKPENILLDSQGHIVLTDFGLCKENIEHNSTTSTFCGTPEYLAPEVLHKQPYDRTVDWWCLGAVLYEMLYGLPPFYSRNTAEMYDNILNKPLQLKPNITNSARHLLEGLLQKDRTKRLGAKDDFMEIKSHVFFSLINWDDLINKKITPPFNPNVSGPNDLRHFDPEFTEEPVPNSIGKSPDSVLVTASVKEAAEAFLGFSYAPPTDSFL

[17] = Chemical stability of the compound at pH 7.4 measured after 24 hrs; assay type: physicochemical; conditions: buffer, read-out: Stability
[18] = target: T3, Serine/threonine-protein kinase Sgk1; test: Inhibition of recombinant human SGK1 expressed in baculovirus expression system using 5-carboxyfluorescein -RPRAATF-NH2 as substrate preincubated for 30 mins followed by substrate addition in presence of 500 uM ATP and measured after 60 mins by microfluidics assay
[19] = target: T2, Cytochrome P450 3A4; test: Inhibition of CYP3A4 in human liver microsomes using midazolam as substrate incubated for 10 mins by LC-MS/MS analysis; assay type: ADME
[20] = Photostability of compound; assay type: physicochemical
[21] = Inhibition of rat SGK1 in presence 500 uM presence of ATP
[22] = tested on: Femur; test: Induction of chondrogenesis in femoral head cartilage isolated from C57BL/6 mouse model of osteoarthritis assessed as reduction in intensity of collagen type x staining at 10 uM incubated for 2 weeks in hypertrophic condition and twice for week medium is changed by immunohistochemical staining based analysis; assay type: functional, tissue-based
[23] = target: Ribosomal protein S6 kinase alpha-1 (Homo sapiens) (UniProt Q15418); test: Inhibition of RSK1 kinase (unknown origin) at 0.1 uM
[24] = tested on: Femur; test: Induction of chondrogenesis in femoral head cartilage isolated from C57BL/6 mouse model of osteoarthritis assessed as reduction in intensity of collagen type x staining at 2 uM incubated for 2 weeks in hypertrophic condition and twice for week medium is changed by immunohistochemical staining based analysis; assay type: functional, tissue-based
[25] = tested on: Femur; test: Induction of chondrogenesis in femoral head cartilage isolated from C57BL/6 mouse model of osteoarthritis assessed as reduction in intensity of collagen type x staining incubated for 2 weeks in hypertrophic condition and twice for week medium is changed by immunohistochemical staining based analysis; assay type: functional, tissue-based
[26] = target: T4, Serine/threonine-protein kinase Sgk1 (Mus musculus, UniProt Q9WVC6); test: Inhibition of mouse SGK1 in presence 500 uM presence of ATP
T4 sequence (Q9WVC6 whole entry): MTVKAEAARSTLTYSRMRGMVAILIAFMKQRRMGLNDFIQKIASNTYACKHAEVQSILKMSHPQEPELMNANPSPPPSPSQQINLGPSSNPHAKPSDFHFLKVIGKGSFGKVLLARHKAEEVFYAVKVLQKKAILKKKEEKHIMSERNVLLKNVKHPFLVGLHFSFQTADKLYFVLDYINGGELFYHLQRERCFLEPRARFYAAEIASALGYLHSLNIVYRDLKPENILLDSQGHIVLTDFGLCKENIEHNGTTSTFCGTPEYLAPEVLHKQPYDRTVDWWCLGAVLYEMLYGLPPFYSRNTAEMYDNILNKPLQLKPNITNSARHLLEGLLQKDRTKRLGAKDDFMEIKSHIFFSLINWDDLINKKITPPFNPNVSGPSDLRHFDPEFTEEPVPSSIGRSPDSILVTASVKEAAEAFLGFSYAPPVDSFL

[27] = Tmax in Lewis rat plasma at 30 mg/kg, po measured after 8 hrs; assay type: ADME, organism-based
[28] = target: T5, Serine/threonine-protein kinase Sgk3 (Homo sapiens, UniProt Q96BR1); test: Inhibition of human SGK3 in presence 500 uM presence of ATP
T5 sequence (Q96BR1 whole entry): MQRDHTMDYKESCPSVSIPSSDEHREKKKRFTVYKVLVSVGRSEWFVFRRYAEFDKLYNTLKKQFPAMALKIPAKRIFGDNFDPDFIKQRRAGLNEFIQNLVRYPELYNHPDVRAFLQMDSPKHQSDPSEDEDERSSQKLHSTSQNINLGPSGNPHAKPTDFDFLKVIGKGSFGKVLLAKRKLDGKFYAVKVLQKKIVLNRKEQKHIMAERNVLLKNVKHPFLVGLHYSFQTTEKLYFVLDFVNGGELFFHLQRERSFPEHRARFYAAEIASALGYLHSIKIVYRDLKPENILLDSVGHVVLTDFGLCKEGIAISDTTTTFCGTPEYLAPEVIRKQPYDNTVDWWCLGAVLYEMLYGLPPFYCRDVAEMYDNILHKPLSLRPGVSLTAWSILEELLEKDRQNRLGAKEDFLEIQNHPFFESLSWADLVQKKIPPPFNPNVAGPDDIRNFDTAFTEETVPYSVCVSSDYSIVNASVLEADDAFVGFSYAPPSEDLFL

[29] = Cmax in Lewis rat femoral head cartilage at 30 mg/kg, po measured after 8 hrs; assay type: ADME, organism-based, Femur; set-up: route oral, time 8 hrs, dose 30 mg/kg
[30] = Cmax in Sprague-Dawley rat plasma at 30 mg/kg, po; assay type: ADME, organism-based; set-up: route oral, dose 30 mg/kg
[31] = AUC (0 to 24 hrs) in Sprague-Dawley rat plasma at 30 mg/kg, po; assay type: ADME, organism-based; set-up: time < 24 hr, route oral, dose 30 mg/kg
[32] = Cmax in Lewis rat plasma at 30 mg/kg, po measured after 8 hrs; assay type: ADME, organism-based; set-up: route oral, time 8 hrs, dose 30 mg/kg
[33] = AUC (0 to 24 hrs) in Lewis rat femoral head cartilage at 30 mg/kg, po measured after 8 hrs; assay type: ADME, organism-based, Femur; set-up: route oral, dose 30 mg/kg, time 8 hrs
[34] = target: T6, Serine/threonine-protein kinase Sgk2 (Homo sapiens, UniProt Q9HBY8); test: Inhibition of human SGK2 in presence 500 uM presence of ATP
T6 sequence (Q9HBY8 whole entry): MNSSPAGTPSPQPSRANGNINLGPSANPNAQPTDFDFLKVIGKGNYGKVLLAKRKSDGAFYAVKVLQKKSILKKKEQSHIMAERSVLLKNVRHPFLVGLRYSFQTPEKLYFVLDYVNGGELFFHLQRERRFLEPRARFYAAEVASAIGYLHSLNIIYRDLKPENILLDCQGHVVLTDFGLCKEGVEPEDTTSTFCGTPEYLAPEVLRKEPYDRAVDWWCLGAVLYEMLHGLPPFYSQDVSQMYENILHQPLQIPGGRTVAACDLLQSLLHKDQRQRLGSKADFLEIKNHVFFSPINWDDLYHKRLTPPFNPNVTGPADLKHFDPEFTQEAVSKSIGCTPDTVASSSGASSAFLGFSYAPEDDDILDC

[35] = Tmax in Sprague-Dawley rat plasma at 30 mg/kg, po; assay type: ADME, organism-based
[36] = Half life in Sprague-Dawley rat plasma at 30 mg/kg, po; assay type: ADME, organism-based
[37] = Ratio of AUC(0 to 24 hrs) in femoral head to plasma in rat measured after 2 hrs; assay type: ADME, Bone/Plasma; conditions: read-out: Selectivity ratio
[38] = AUC (0 to 24 hrs) in Lewis rat plasma at 30 mg/kg, po measured after 8 hrs; assay type: ADME, organism-based; set-up: route oral, dose 30 mg/kg, time 8 hrs
[39] = Tmax in Lewis rat femoral head cartilage at 30 mg/kg, po measured after 8 hrs; assay type: ADME, organism-based, Femur

Chain of CYP3A4 (P08684 whole entry): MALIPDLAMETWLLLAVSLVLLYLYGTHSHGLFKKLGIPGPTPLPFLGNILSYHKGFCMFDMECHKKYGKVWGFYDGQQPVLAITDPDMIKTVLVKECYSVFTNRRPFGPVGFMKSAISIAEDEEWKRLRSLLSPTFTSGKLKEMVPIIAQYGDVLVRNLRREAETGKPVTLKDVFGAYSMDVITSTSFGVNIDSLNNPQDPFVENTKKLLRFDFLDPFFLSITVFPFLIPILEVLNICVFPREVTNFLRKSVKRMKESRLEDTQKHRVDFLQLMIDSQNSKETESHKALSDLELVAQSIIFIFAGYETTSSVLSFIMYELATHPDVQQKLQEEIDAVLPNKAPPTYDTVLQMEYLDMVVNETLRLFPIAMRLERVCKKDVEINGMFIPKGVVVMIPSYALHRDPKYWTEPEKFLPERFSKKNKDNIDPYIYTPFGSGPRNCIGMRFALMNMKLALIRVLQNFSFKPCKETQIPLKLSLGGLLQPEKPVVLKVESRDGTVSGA
T2 sequence (P08684 whole entry): as above
T1 sequence (Q12809 whole entry): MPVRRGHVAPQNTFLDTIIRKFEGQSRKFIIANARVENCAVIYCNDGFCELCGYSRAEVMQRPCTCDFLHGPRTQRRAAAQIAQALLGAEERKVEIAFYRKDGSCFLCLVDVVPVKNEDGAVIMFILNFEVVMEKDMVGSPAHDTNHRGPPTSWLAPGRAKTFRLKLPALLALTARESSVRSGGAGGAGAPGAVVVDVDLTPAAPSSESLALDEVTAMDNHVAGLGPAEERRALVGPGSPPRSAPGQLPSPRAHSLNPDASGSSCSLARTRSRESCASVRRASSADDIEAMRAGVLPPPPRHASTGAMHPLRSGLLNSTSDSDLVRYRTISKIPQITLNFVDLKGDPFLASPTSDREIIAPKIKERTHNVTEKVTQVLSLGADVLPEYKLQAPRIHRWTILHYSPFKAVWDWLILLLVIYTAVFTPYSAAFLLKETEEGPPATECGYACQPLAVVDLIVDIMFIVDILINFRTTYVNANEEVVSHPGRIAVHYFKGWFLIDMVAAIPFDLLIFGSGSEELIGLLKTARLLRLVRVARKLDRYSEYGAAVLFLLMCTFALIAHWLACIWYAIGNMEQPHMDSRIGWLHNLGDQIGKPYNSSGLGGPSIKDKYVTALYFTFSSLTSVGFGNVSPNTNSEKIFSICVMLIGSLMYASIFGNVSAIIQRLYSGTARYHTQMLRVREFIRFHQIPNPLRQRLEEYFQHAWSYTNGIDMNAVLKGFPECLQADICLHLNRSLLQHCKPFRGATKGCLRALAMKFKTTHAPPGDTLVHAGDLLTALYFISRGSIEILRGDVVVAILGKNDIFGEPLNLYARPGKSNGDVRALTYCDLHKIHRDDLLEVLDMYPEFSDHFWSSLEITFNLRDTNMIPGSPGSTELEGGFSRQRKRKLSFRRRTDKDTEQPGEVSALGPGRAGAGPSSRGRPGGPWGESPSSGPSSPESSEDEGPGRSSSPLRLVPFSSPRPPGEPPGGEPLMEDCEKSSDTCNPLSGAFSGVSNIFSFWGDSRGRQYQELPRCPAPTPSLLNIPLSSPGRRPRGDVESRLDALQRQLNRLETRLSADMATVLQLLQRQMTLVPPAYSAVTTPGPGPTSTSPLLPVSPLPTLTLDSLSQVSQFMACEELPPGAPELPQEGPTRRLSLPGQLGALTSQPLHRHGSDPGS
Chain of Ribosomal protein S6 kinase alpha-1 (Homo sapiens) (Q15418 whole entry): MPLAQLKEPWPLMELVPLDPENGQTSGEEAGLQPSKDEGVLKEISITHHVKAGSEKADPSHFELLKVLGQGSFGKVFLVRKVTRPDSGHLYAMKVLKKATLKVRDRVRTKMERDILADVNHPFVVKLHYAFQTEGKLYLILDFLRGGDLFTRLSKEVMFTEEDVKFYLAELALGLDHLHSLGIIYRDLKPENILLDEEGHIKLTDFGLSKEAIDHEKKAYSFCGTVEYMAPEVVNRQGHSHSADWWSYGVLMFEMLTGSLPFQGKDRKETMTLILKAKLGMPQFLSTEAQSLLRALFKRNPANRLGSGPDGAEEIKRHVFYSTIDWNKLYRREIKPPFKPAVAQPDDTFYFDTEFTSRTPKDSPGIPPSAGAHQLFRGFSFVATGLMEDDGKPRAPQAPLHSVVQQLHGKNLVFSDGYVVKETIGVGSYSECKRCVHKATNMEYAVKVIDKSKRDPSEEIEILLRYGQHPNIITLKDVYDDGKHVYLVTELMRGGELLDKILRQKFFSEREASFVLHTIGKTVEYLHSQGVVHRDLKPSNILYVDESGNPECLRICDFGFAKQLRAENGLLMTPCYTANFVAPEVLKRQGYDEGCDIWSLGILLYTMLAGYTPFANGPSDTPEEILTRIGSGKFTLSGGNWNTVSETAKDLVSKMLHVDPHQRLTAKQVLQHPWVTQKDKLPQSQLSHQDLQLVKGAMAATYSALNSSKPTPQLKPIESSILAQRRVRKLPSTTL

Structure (SMILES) | metabolised at 20 min [1] [%] | Emax [2] [%] | solubility [3] [µg/mL] | metabolised at 20 min [4] [%] | CLH [8] [mL/h] | chromatographic logD [9] | Papp at 2 h, 20 µM [10] [×10⁻⁶ cm/s] | IC50 [11] [nM] | metabolised at 20 min [15] [%] | IC50 [16] [nM] | remaining at 24 h [17] [%] | IC50 [18] [nM] | IC50 [19] [nM] | Stability [20] [%] | IC50 [21] [nM] | inhibition at 1 µM [5] [%] | inhibition at 10 µM [6] [%] | Activity [7] | Activity [12] | IC50 [13] [nM] | other results
Cc1n[nH]c2nc(-c3ccc(NS(=O)(=O)c4cc(Cl)ccc4F)cc3)nc(OC3CCN(C4CC4)CC3)c12 | 11 | 3 | < 1 | 19 | 0.02 | 3.4 | 5 | > 30000 | 4 | 2 | 100 | 4 | > 30000 | – | – | 24 | 5 | Non-Toxic | Non-Toxic | 7 | solubility [14]: 17 µg/mL (≈ 30.5 µM)
Nc1n[nH]c2nc(-c3ccc(NS(=O)(=O)c4cc(Cl)ccc4F)cc3)ccc12 | – | – | – | – | – | – | – | – | – | – | – | – | – | 91.7 | – | – | – | – | – | – | –
O=S(=O)(Nc1ccc(-c2nc(O[C@H]3CC[C@H](O)CC3)c3cn[nH]c3n2)cc1)c1cc(Cl)ccc1F | 6 | 13 | 4 (≈ 7.72 µM) | 13 | – | 2.8 | 8.6 | > 3000 | 7 | – | 100 | – | > 3000 | – | 358 | 0 | 65 | Non-Toxic | Non-Toxic | 50 | Activity [22]: Active; inhibition [23]: 57%; Activity [24]: inactive; Activity [25]: Active; IC50 [26]: 253 nM
Nc1n[nH]c2nc(-c3ccc(NS(=O)(=O)c4c(F)cc(F)cc4F)cc3)ccc12 | – | – | – | – | – | – | – | – | – | – | – | – | – | 97.4 | – | – | – | – | – | – | –

Second part, led by results:

metabolised at 20 min [1] [%] | Emax [2] [%] | solubility [3] [µg/mL] | metabolised at 20 min [4] [%] | CLH [8] [mL/h] | chromatographic logD [9] | Papp at 2 h, 20 µM [10] [×10⁻⁶ cm/s] | IC50 [11] [nM] | metabolised at 20 min [15] [%] | IC50 [16] [nM] | remaining at 24 h [17] [%] | IC50 [18] [nM] | IC50 [19] [nM] | Stability [20] [%] | IC50 [21] [nM] | Structure (SMILES) | inhibition at 1 µM [5] [%] | inhibition at 10 µM [6] [%] | Activity [7] | Activity [12] | IC50 [13] [nM] | other results
– | – | – | – | – | – | – | – | – | – | – | – | – | 99.3 | – | Nc1n[nH]c2nc(-c3ccc(NS(=O)(=O)c4cc(Cl)ccc4F)cc3)ncc12 | – | – | – | – | – | –
3 | 17 | 58 (≈ 136 µM) | 3 | 0.005 | 1.13 | 1.5 | > 30000 | 2 | 3 | 100 | 9 | > 30000 | – | 303 | N#Cc1ccc(Cl)cc1S(=O)(=O)Nc1ccc(-c2ncc3c(N)n[nH]c3n2)cc1 | 0 | 11 | Non-Toxic | – | 550 | Tmax [27]: 4 h; IC50 [28]: 211 nM; Cmax [29]: 890 ng/mL; Cmax [30]: 10600 ng/mL; AUC(0-t) at 24 h [31]: 110000 ng·h/mL; Cmax [32]: 2970 ng/mL; AUC(0-t) at 8 h [33]: 5200 ng·h/mL; IC50 [34]: 21 nM; Activity [25]: Active; Tmax [35]: 4 h; half-life [36]: 2.8 h; Kp at 2 h [37]: 0.047; AUC(0-t) at 8 h [38]: 33000 ng·h/mL; Tmax [39]: 2 h; IC50 [26]: 294 nM
